Measurements reported in US12378204B2, “Triazole compounds and preparation method therefor and use thereof” (WUHAN LL SCIENCE AND TECHNOLOGY DEVELOPMENT CO., LTD., priority 2019, dated 2025).

What was measured:
Format in all cases: cell-based
[1] = target: T1, hLPAR1 (human lysophosphatidic acid receptor 1) (Homo sapiens, UniProt Q92633); assay: FLIPR intracellular calcium assay, hLPAR1 expressed in CHO-K1 cells; details: antagonism of 1 μM LPA-induced calcium increase, CHO-K1 cells expressing hLPAR1; read-out: LPAR1 IC50
T1 construct: expressed in transfected cells
Description: The antagonist property of the compounds disclosed herein was determined using the FLIPR (fluorescence imaging plate reader) method, wherein the compounds are inhibitors for the intracellular calcium increase induced by activation of hLPAR1 (human lysophosphatidic acid receptor 1, accession No. NM_001401.4) expressed in CHO-K1 cells (Chinese hamster ovary cells K1, ATCC).
CHO-K1 cells stably expressing hLPAR1 were cultured in F-12 medium containing 10% FBS (fetal bovine serum, Gibco, 10099-141), 1% penicillin-streptomycin (Gibco, 15140-122) and 0.4 mg/mL hygromycin B (Gibco, 10687010) in a cell incubator (37° C., […]). During 18-24 h prior to the FLIPR experiment, cells at 250,000 cells/mL were seeded into a 96-well plate (25,000 cells/well) and incubated overnight in the cell incubator. On the day of the experiment, the medium was discarded and the cells were washed in a FLIPR buffer (0.3 mL of probenecid (Thermo, P36400), 0.6 mL of 1 M HEPES (Invitrogen, 15630080) and 29.1 mL of HBSS (Invitrogen, 14065056) per 30 mL of buffer). Each well was added with 75 μL of 1 mM Fluo-4 AM fluorescent dye (Thermo, F14202) and then the cells were subjected to dye-loading incubation at 37° C. for 1.0 h. The 96-well plate was then washed once with buffer, added with a buffer containing a test compound or vehicle at 50 μL per well and then incubated for 30 min at room temperature. The cell plate was then placed in the FLIPR for baseline fluorescence measurements (excitation at 485 nm and emission at 525-535 nm). An agonist (oleoyl-L-α-lysophosphatidic acid sodium salt (Sigma, L7260) at a final concentration of 1 μM) or a vehicle (ultrapure water) was then added at 50 μL/well, fluorescence values were measured for 2 min at 1-second intervals, and finally the output fluorescence counts were analyzed.

[2] = In vitro cytotoxicity assay in HepG2 cells, CCK-8 method; details: human, 48 h incubation
Description: In vitro cytotoxicity assay for the compounds disclosed herein was performed in HepG2 cells using the CCK-8 method. HepG2 cells (Beina Bio) in the logarithmic growth phase were collected, the concentration of cell suspension was adjusted, and then the cells were plated on a 96-well cell culture plate at 50,000 cells/well. • The cells were then incubated overnight in a cell incubator (5% CO2, 37° C.), and after 80-90% cell confluence was achieved, test compounds or vehicle (DMSO) at various concentration gradients were added after medium change. The resulting mixture was incubated in the cell incubator (5% CO2, 37° C.) for 48 h. After the treatment, the medium in the plate was discarded. The plate was washed twice with PBS, added with CCK-8 working solution (Beyotime) at 100 μL per well, and then incubated at 37° C. for 1.5 h in the dark. Absorbance at OD450nm was measured for each well on a microplate reader, and CC50 value of each compound was analyzed and calculated.

[3] = tested on: A2058 (human melanoma cells); assay: A2058 cell scratch assay (cell migration inhibition); details: A2058 scratch area 0 h vs 24 h, 10 μM LPA, read-out: Cell migration inhibition rate
Description: The activity of the compounds disclosed herein at the cell level in vitro is evaluated by A2058 (human melanoma cells, Beina Bio, BNCC341099) cell scratch assay. The inhibitory activity of the compounds against LPAR1 can be reflected by inhibition of cell scratch healing.
A2058 cells in a T75 cm^2 cell culture flask were digested and gently pipetted into single cells, adjusted to a cell density of 4×10^5 cells/mL, and then seeded into a 24-well plate. After the cell confluence reached 80%, the cell culture plate was taken out and the original medium was discarded. Serum-free medium was then added, and the cells were starved overnight in an incubator (37° C., 5% CO2). The cell culture plate was then taken out, and cell scratches were made along the diameter of the wells using a 200 μL pipette tip. The cell culture plate was then added with 500 μL of serum-free medium and then shaken gently to wash away the residual cells on the scratched surface, and this was repeated twice. The medium was discarded and 500 μL of 1% FBS medium containing the compound was then added, and the mixture was incubated at 37° C. for 30 min. […] Olympus CKX53 was used to observe the scratches, and MShot image analysis system was used to take pictures and measure the scratch area at 0 h. Then the cell culture plate was incubated in the incubator (37° C., 5% CO2). 24 h later, the scratches were observed again with Olympus CKX53, and MShot image analysis system was used to take pictures and measure the scratch area at 24 h. Cell migration inhibition rate was calculated according to the following formula: […]

T1 sequence (Q92633 whole entry): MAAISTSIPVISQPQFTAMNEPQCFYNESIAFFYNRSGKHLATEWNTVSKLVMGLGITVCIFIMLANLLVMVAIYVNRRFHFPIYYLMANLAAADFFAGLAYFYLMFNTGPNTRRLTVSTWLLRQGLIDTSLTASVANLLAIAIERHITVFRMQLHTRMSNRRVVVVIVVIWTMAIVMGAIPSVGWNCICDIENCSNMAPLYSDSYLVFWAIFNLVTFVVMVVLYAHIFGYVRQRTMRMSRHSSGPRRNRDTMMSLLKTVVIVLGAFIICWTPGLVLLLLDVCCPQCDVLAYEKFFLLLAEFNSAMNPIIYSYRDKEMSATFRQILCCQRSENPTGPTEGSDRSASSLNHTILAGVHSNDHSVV

Row | IC50 [1] | SMILES | CC50 at 48 h [2] | inhibition [3]
1 | 300 to 10000 nM | Cc1nnn(-c2ccc(O[C@H]3CCC[C@H](C(=O)O)C3)cc2)c1N(C)C(=O)OC1CCCC1 (racemic) [Compound 34] |  | 
2 | 50 to 300 nM | Cn1nnc(-c2ccc(O[C@H]3CCC[C@H](C(=O)O)C3)cc2)c1CN1CCN(Cc2ccccc2)C1=O (racemic) [Compound 17, (+/−)-(1S,3S)-3-(4-(5-((3-benzyl-2-carbonylimidazolidin-1-yl)methyl)-1-methyl-1H-1,2,3-triazol-4-yl)phenoxy)cyclohexane-1-carboxylic acid] | > 200000 nM | 0 to 30%
3 | 300 to 10000 nM | Cn1nnc(-c2ccc(O[C@H]3CCC[C@H](C(=O)O)C3)cc2)c1CS(=O)(=O)NC1CCCC1 (racemic) [Compound 33] |  | 
4 | 50 to 300 nM | CN(Cc1ccccc1)C(=O)OCc1c(-c2ccc(N[C@H]3CCC[C@H](C(=O)O)C3)cc2)nnn1C [Compound 13, 3-((4-(5-(((benzyl(methyl)carbamoyl)oxo)methyl)-1-methyl-1H-1,2,3-triazol-4-yl)phenyl)amino)cyc lohexanecarboxylic acid] | > 200000 nM | 0 to 30%
5 | 50 to 300 nM | Cn1nnc(-c2ccc(O[C@H]3CCC[C@H](C(=O)O)C3)cc2)c1CNC(=O)C1CCCC1 (racemic) [Compound 20, (+/−)-(1S,3S)-3-(4-(5-(cyclopentanecarboxamido<oxalylamino>methyl)-1-methyl-1H-1,2,3-triazol-4-yl)phenoxy)cyclohexane-1-carboxylate] | > 200000 nM | 30 to 50%
6 | 50 to 300 nM | Cn1nnc(-c2ccc(O[C@H]3CCC[C@H](C(=O)O)C3)cc2)c1COCc1ccccc1 (racemic) [Compound 23, (+/−)-(1S,3S)-3-(4-(5-((benzyloxy)methyl)-1-methyl-1H-1,2,3-triazol-4-yl)phenoxy)cyclohexane-1-carboxylic acid] | > 200000 nM | 30 to 50%
7 | 300 to 10000 nM | Cn1nnc(-c2ccc(O[C@H]3CCC[C@H](C(=O)O)C3)cc2)c1NCc1ccccc1 (racemic) [Compound 24, (+/−)-(1S,3S)-3-(4-(5-(benzylamino)-1-methyl-1H-1,2,3-triazol-4-yl)phenoxy) cyclohexane-1-carboxylate] | > 200000 nM | 0 to 30%
8 | 50 to 300 nM | CN(Cc1c(-c2ccc(O[C@H]3CCC[C@H](C(=O)O)C3)cc2)nnn1C)C(=O)OCc1ccccc1 [Compound 14, (1S,3S)-3-(4-(5-((((benzyloxy)carbonyl)(methyl)amino)methyl)-1-methyl-1H-1,2,3-triazol-4-yl)phenoxy)cyclohexane-1-carboxylic acid] | > 200000 nM | 30 to 50%
9 | 300 to 10000 nM | CN(Cc1ccccc1)C(=O)OCc1c(-c2ccc(O[C@H]3CCC[C@H](C(=O)O)C3)o2)nnn1C (racemic) [Compound 12] | > 200000 nM | 0 to 30%
10 | 300 to 10000 nM | Cn1nnc(-c2ccc(O[C@H]3CCC[C@H](C(=O)O)C3)cc2)c1CNc1ncc(C2CCCC2)o1 (racemic) [Compound 38] |  | 
11 | 50 to 300 nM | Cn1nnc(-c2ccc(O[C@H]3CCC[C@H](C(=O)O)C3)cc2)c1-c1cn(Cc2ccccc2)c(=O)o1 [Compound 8] | > 200000 nM | 0 to 30%
12 | 300 to 10000 nM | Cn1nnc(-c2ccc(O[C@H]3CCC[C@H](C(=O)O)C3)cc2)c1Cn1ccn(Cc2ccccc2)c1=O (racemic) [Compound 16, (+/−)-(1S,3S)-3-(4-(5-((3-benzyl-2-carbonyl-2,3-dihydro-1H-imidazol-1-yl)methyl)-1-methyl-1H-1,2,3-triazol-4-yl)phenoxy)cyclohexane-1-carboxylic acid] | > 200000 nM | 30 to 50%
13 | 300 to 10000 nM | Cn1nnc(-c2ccc(O[C@H]3CCC[C@H](C(=O)O)C3)c(C(F)(F)F)n2)c1C1CN(C2CCCC2)C(=O)O1 (some centres unmarked) [Compound 29] | > 200000 nM | 0 to 30%
14 | 300 to 10000 nM | Cn1nnc(-c2ccc(O[C@H]3CCC[C@H](C(=O)O)C3)cc2)c1CNC(=O)/C=C/c1ccccc1 (racemic) [Compound 5] | > 200000 nM | 0 to 30%
15 | 300 to 10000 nM | Cc1ncc(-c2c(-c3ccc(O[C@H]4CCC[C@H](C(=O)O)C4)cc3)nnn2C)o1 (racemic) [Compound 15, (+/−)-(1S,3S)-3-(4-(1-methyl-5-(2-methyloxazol-5-yl)-1H-1,2,3-triazol-4-yl)phenoxy) cyclohexane-1-carboxylic acid] | > 200000 nM | 30 to 50%
16 | ≤ 50 nM | Cn1nnc(C#CO[C@H]2CCC[C@H](C(=O)O)C2)c1COc1nccc(C2CC2)n1 (racemic) [Compound 39] |  | 
17 | 50 to 300 nM | CN(Cc1ccccc1)C(=O)OCc1cn(-c2ccc(O[C@H]3CCC[C@H](C(=O)O)C3)cc2)nn1 (racemic) [Compound 6, (+/−)-(1S,3S)-3-(4-(4-(((benzyl(methyl)carbamoyl)oxo)methyl)-1H-1,2,3-triazol-1-yl)phenoxy)cyclohexane-1-carboxylic acid] | > 200000 nM | 30 to 50%
18 | 50 to 300 nM | Cn1nnc(-c2ccc(O[C@H]3CCC[C@H](C(=O)O)C3)cc2)c1CNC(=O)Cc1ccccc1 [Compound 4, (1S,3S)-3-((4-(5-(2-N-phenylacetamido))-1-methyl-1H-1,2,3-triazol-4-yl)-phenoxy)cyclohexane-1-carboxylic acid] | > 200000 nM | 30 to 50%
19 | 50 to 300 nM | Cn1nnc(-c2ccc(O[C@H]3CCC[C@H](C(=O)O)C3)c(C(F)(F)F)n2)c1CNC(=O)OC1CCCC1 (racemic) [Compound 28, (+/−)-(1S,3S)-3-((6-(5-((((cyclopentyloxy)carbonyl)amino)methyl)-1-methyl-1H-1,2,3-triazol-4-yl)-2-(trifluoromethyl)pyridin-3-yl)oxo)cyclohexane-1-carboxylic acid] | > 200000 nM | 50 to 70%
20 | 50 to 300 nM | CN(C(=O)NCc1c(-c2ccc(O[C@H]3CCC[C@H](C(=O)O)C3)cc2)nnn1C)C1CCCC1 (racemic) [Compound 30, (+/−)-(1S,3S)-3-(4-(5-((3-cyclopentyl-3-methylureido)methyl)-1-methyl-1H-1,2,3-triazol-4-yl)phenoxy)cyclohexane-1-carboxylic acid] | > 200000 nM | 30 to 50%
21 | 50 to 300 nM | CN(Cc1ccccc1)C(=O)NCc1c(-c2ccc(O[C@H]3CCC[C@H](C(=O)O)C3)cc2)nnn1C (racemic) [Compound 1] | > 200000 nM | 30 to 50%
22 | 300 to 10000 nM | CN(Cc1ccccc1)C(=O)OCc1c(C2CC2O[C@H]2CCC[C@H](C(=O)O)C2)nnn1C (mixture of isomers) [Compound 32] |  | 
23 | 300 to 10000 nM | Cn1nnc(-c2ccc(O[C@H]3CCC[C@H](C(=O)O)C3)cc2)c1NC(=O)Cc1ccccc1 (racemic) [Compound 37] |  | 
24 | 300 to 10000 nM | Cn1nnc(-c2ccc(O[C@H]3CCC[C@H](C(=O)O)C3)cc2)c1NCC1CCCC1 (racemic) [Compound 36] |  | 
25 | 300 to 10000 nM | CN(C(=O)OCc1c(-c2ccc(O[C@H]3CCC[C@H](C(=O)O)C3)cc2)nnn1C1CC1)C1CCCC1 [Compound 35] |  | 
